Source: US9592223B2, “Small molecule inhibitors of MALT1” (Cornell University, priority 2012, dated 2017)

Experiments:
[1] = molecular target: T1, LZ-MALT1 (MALT1 (340-789) fused with a leucine zipper dimerization motif) (Homo sapiens, UniProt Q9UDY8); assay: LZ-MALT1 fluorescence assay (Ac-LRSR-AMC cleavage), screening and concentration response; assay type: biochemical; details: concentration response assay, 0.122 μM to 62.5 μM; read-out: IC50 (biochemical activity, in vitro)
T1 construct: His tag (N); made in house; host or cells: E. coli
T1 sequence (Q9UDY8 with tags, fused parts or gaps limits assumed): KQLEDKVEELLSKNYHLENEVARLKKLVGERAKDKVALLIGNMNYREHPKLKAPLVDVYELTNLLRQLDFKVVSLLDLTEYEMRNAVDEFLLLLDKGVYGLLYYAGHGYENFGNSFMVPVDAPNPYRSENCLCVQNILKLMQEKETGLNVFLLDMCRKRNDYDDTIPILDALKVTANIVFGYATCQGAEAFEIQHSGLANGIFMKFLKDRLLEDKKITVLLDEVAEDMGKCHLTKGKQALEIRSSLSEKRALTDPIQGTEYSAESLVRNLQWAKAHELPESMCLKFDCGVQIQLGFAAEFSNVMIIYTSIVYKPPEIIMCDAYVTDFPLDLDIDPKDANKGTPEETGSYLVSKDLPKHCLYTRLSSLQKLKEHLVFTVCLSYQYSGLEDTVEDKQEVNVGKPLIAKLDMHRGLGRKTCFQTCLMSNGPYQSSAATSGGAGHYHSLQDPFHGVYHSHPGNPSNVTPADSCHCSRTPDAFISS
Description: We reasoned that MALT1 small-molecule inhibitors might be useful chemical tools for studying MALT1 biology and treating MALT1 addicted tumors. However, full-length MALT1 and its paracaspase domain (amino acids 340-789) are naturally present in physiological solutions as a monomer, which has very low proteolytic activity. Caspases generally must homodimerize for maximal catalytic activity (Pop et al., 2006; Walker et al., 1994; Yin et al., 2006) and accordingly the recently reported structures of the paracaspase domain of MALT1 in complex with a peptide inhibitor are dimeric (Wiesmann et al., 2012; Yu et al., 2011). […]
Ac-LRSR-AMC was used as substrate and reactions were measured with excitation/emission wavelengths of 360/465 nm. […] The final percent inhibition was calculated with the formula: {[fluorescencetest compound(T2-T1)−fluorescenceneg ctrl(T2−T1)]/[fluorescencepos ctrl(T2−T1)−fluorescenceneg ctrl(T2−T1)]}×100. […]
The screening consisted of a 20 μl reaction in 384-well black plates (Greiner Bio One, Wemmel, Belgium, catalogue #784076) with 100 nM LZ-MALT1, 200 μM Ac-LRSR-AMC, and 12.5 μM test compound in buffer A (20 mM HEPES pH 7.5, 10 mM KCl, 1.5 mM MgCl2, 1 mM EDTA, 1 mM DTT, 0.01% Triton X-100). The reactions were measured with excitation/emission wavelengths of 360/465 nm using Envision Multilabel Reader (Perkin-Elmer, Waltham, Mass.). […]

Caspase-3 = Caspase-3 (Homo sapiens, UniProt P42574); assay: Caspase selectivity; assay type: biochemical
Sequence of Caspase-3 (P42574 29-175 limits assumed, species assumed): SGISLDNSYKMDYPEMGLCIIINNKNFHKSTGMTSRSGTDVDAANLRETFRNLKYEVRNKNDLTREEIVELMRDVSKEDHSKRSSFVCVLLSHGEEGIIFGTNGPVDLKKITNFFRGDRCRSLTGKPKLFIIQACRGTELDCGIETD
Sequence of Caspase-3 (P42574 176-277 limits assumed, species assumed): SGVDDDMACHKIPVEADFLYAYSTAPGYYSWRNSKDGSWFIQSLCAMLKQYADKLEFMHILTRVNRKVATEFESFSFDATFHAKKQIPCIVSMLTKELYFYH

Caspase-3/7 activity = Caspase-3/7 activity or apoptosis in cell-based assays; details: concentrations which suppress MALT1
nuclear c-REL and p65 = assay: Western blots for c-REL and p65 in nuclear extracts of HBL-1 and TMD8 cells; assay type: cell-based, human; details: 24 hr, 200 nM for HBL-1 and 500 nM for TMD8
Method: MALT1 mediates c-REL translocation to the nucleus following BCR stimulation (Ferch et al., 2007). […] This selectivity towards c-REL had also been previously shown in MALT1 knockout mice and after MALT1 cleavage inhibition by the MALT1 blocking peptide Z-VRPR-FMK (Ferch et al., 2009; Ferch et al., 2007; Hailfinger et al., 2011).
Equal amounts of total protein (20-75 μg) were separated on sodium dodecyl sulfate-polyacrylamide gel electrophoresis (SDS-PAGE), and electrotransferred onto nitrocellulose membranes. Membranes were incubated with primary antibodies (MALT1, BCL-10, CYLD from Santa Cruz Biotechnologies, Santa Cruz, Calif.; A20 from eBioscience, San Diego, Calif.; phospho-IκB-α, IκB-α, c-REL, RELB from Cell Signaling, Danvers, Mass. and α-Tubulin from Sigma), followed by secondary antibodies conjugated to horseradish peroxidase, which were detected by chemiluminescence (Pierce, Thermo Scientific, Rockford, Ill.).

[2] = Toxicity 1: increasing daily IP doses over 10 days; assay type: in vivo, C57BL/6 mice; details: daily IP 0.05 to 25 mg/kg over 10 days, cumulative 51.1 mg/kg
Description: Brain, heart, lung, liver, kidney, bowel, spleen, thymus and bone marrow tissues were examined. […] Myeloid to erythroid ratio was 4-5:1. Megakaryocytes were normal in number and distribution. There was no fibrosis nor increased number of blasts or lymphocytes. Complete peripheral blood counts, biochemistry and liver function tests were normal (Table 2).

[3] = system: primary human GCB DLBCL cells; assay: Primary human DLBCL cells ex vivo, GCB cases, Trypan blue; assay type: cell-based; details: 0.8 μM, 48 hr
Method: After 48 hr exposure, cell number and viability were determined using Trypan blue.
Patient de-identified tissues were obtained in accordance with the guidelines and approval of the Weill Cornell Medical College Review Board. Patient samples were processed as previously described (Cerchietti et al., 2010). Briefly, single cell suspensions from lymph node biopsies were obtained by physical disruption of tissues followed by cell density gradient separation (Fico/Lite LymphoH, Atlanta Biologicals, Lawrenceville, Ga.). Cell number and viability were determined by Trypan blue exclusion. Primary DLBCL cells were cultured in 96-well plates. Cells were grown in advanced RPMI medium with 20% FBS supplemented with antibiotics for 48 hours. […] After 48 hr of exposure, viability was determined by using Trypan blue (Sigma). All samples were normalized to their own replicate control. Statistical significance was calculated using paired T-test.

Question: With `COCCOc1nc(-c2ccc(Cl)c(Cl)c2)n(-c2ccc(NC(=O)CCl)cc2)n1` [MI-2] as the compound, how does the IC50 [1] read?
Answer: ~5 µM

Question: And the “activity against Caspase-3” value (Caspase-3)?
Answer: little activity

Question: What about the “inhibition of Caspase-3/7 activity or apoptosis” value (Caspase-3/7 activity) of the same compound?
Answer: did not inhibit

Question: And the “nuclear c-REL (Western blot)” value (nuclear c-REL and p65)?
Answer: clear reduction of nuclear c-REL

Question: And the “nuclear p65 (Western blot)” value (nuclear c-REL and p65)?
Answer: did not affect p65 levels

Question: And the “physical indicators of sickness” value [2]?
Answer: no evidence of lethargy, weight loss

Question: And the “response of cell number and viability” value [3]?
Answer: none of the GCBs did
